The assay addresses Bovine serum albumin (Bos taurus, UniProt P02769). The assay can be described thus: Bovine serum albumin (BSA) protein denaturation assay, in vitro anti-inflammatory activity. It counts as biochemical. As for the experimental part:
Bovine Serum Albumin Assay (BSA) In vitro-inflammatory activities of the tested samples were determined using a modified method of the BSA assay reported by Williams et al. BSA solution (0.4%, w/v) was prepared in Tris Buffered Saline. The pH was adjusted to 6.4 with glacial acetic acid. Different dilutions of 20, 40, 60, 80, and 100 μg/mL of 7-(4-((5-(2-bromobenzylideneamino)-2-thioxo-1,3,4-thiadiazol-3(2H)-yl)methyl)piperazin-1-yl)-1-cyclopropyl-6-fluoro-4-oxo-1,4-dihydroquinoline-3-carboxylic acid (IV) the stock solutions were added to test tubes containing 1 mL of 0.4%, w/v BSA buffer solution. Both negative (solvent) and positive (aspirin) controls were assayed in a similar manner. The solutions were then heated in a water bath at 72° C. for 10 minutes and cooled for 20 minutes under laboratory conditions. The turbidity of the solutions (level of protein precipitation) was measured at 660 nm in Spectrophotometer (V-770 UV-Visible/NIR Spectrophotometer). The percentage inhibition of precipitation (protein denaturation) was determined relative to the negative control using the following equation: [formula] % Anti-Denaturation Activity=% Inhibition of Protein Denaturation=% Anti-inflammatory Activity

Setting [1] is: read-out: % Inhibition of protein denaturation (Bovine serum albumin).

Chain of Bovine serum albumin (P02769 25-607): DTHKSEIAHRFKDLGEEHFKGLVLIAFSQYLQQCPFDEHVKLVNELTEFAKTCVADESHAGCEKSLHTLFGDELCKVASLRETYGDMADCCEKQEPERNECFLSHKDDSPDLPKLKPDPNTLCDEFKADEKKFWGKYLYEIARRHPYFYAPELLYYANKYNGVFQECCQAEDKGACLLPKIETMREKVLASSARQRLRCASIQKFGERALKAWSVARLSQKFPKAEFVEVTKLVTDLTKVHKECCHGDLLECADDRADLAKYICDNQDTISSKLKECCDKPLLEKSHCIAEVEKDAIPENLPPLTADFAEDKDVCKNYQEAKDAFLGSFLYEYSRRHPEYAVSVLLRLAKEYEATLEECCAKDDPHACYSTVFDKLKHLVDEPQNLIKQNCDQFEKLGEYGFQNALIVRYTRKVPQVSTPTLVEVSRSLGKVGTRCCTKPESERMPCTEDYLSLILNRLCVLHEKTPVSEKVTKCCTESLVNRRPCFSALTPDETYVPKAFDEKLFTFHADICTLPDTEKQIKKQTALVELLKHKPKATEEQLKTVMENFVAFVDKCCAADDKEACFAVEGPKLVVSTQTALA

For the compound `O=C(O)c1cn(C2CC2)c2cc(N3CCN(Cn4nc(N=Cc5ccccc5Br)sc4=S)CC3)c(F)cc2c1=O` [IV, 7-(4-((5-(2-bromobenzylideneamino)-2-thioxo-1,3,4-thiadiazol-3(2H)-yl)methyl)piperazin-1-yl)-1-cyclopropyl-6-fluoro-4-oxo-1,4-dihydroquinoline-3-carboxylic acid], for the setting “BSA denaturation assay”, the “in vitro anti-inflammatory activity (in words)” value is “considerable anti-inflammatory effect”. Besides, under setting [1], the inhibition at 20 µg/mL was found to be 62.6%, the inhibition at 40 µg/mL is 73.1%, the inhibition at 60 µg/mL was 75.2% and the inhibition at 80 µg/mL came to 82%. For the same compound, under setting [1], the inhibition at 100 µg/mL is 84.8%.

Source of the values: patent publication US11919893B1, “7-(4-((5-(2-bromobenzylideneamino)-2-thioxo-1,3,4-thiadiazol-3(2H)-yl)methyl) piperazin-1-yl)-1-cyclopropyl-6-fluoro-4-oxo-1,4-dihydroquinoline-3-carboxylic acid as an anti-inflammatory compound” (KING FAISAL UNIVERSITY, priority 2023, dated 2024).
